Here are results for four molecules from patent US11208435B2, “Verticilide enantiomer and methods of inhibiting cardiac ryanodine receptor-mediated intracellular calcium release” (Vanderbilt University, priority 2017, dated 2021).

The test system of one series is Casq2^−/− mice. The experiment in a line: Catecholamine-induced ventricular arrhythmia, ECG in Casq2-/- mice. The class given is in vivo, mouse. As to conditions: 30 mg/kg i.p. The procedure: (FIG. 3A) Isolated cardiomyocytes were field stimulated at 3 Hz for 20 seconds followed by 40 seconds recording of SCR events (†). Application of 10 mM caffeine (caff) was used to measure SR Ca2+ content. (FIG. 3B) SCR frequency following cessation of pacing. N=63, 27, 31, 63, 30, and 27 cells for […] ent-1, respectively. **p<0.01, ***p<0.001 vs DMSO by t-test. (FIG. 3C) Representative heart rate traces in Casq2−/− mice treated with DMSO or ent-1. Isoproterenol (3.0 mg/kg i.p.) was injected at 0 s. Rhythm strips show arrhythmia features. Ectopic beats (†) produce a variable HR in the traces. (FIG. 3D) Quantification of catecholamine-induced ectopic beats by surface electrocardiogram in Casq2−/− mice injected intraperitoneally with 30 mg/kg (drug/body weight) nat-1 or ent-1 or DMSO of equivalent volume 30 minutes prior to recordings. ***p<0.001 vs DMSO or ###p<0.001 vs nat-1 by Mann-Whitney U-test. (FIG. 3E) Incidence of ventricular tachycardia (VT). p=0.0305 for ent-1 vs DMSO (*) or ent-1 vs nat-1 (#) by Fisher's exact test. N=22 mice per group (D and E). Data in B and D presented as mean±SEM.
To determine whether ent-1 inhibition of Ca^2+ release in cardiomyocytes in vitro translates into activity against ventricular arrhythmia in vivo, Casq2^−/− mice were injected intraperitoneally with 30 mg/kg nat-1, ent-1, or DMSO of equivalent volume. […]

The target of series [1] is T1, RyR2 (Sus scrofa, UniProt A0A5G2R1W3).
T1 construct: cardiac ventricle (RyR2); from tissue; host or cells: porcine cardiac ventricle sarcoplasmic reticulum
Kind of series: [3H]ryanodine binding to cardiac SR. As to conditions: for [3H]ryanodine binding (RyR2 activity): 50 μM, three hours. More on the design: species or system porcine. The protocol: (§1) (FIG. 2A) Representative confocal line scans of Ca2+ sparks in the absence (DMSO) or presence of 25 μM nat-1 or ent-1 in permeabilized Casq2−/− cardiomyocytes. (FIG. 2B) Ca2+ spark frequency in Casq2−/− cells treated with 25 μM nat-1, 7, 8, and their respective enantiomers. (FIG. 2C) Comparison of [3H]ryanodine binding to SR isolated from porcine longissimus dorsi (RyR1) or cardiac ventricle (RyR2) in the presence of 50 μM nat-1, ent-1, or tetracaine (tet). (FIG. 2D) Dose response curves for ent-1 and tet inhibition of [3H]ryanodine binding to RyR2. (FIG. 2E) Representative Ca2+ sparks from permeabilized wild-type cardiomyocytes treated with 3 μM ent-1, 25 μM flecainide, or 50 μM tetracaine. Graph indicates amplitude of Ca2+ release of the selected representative sparks over time. (FIG. 2F) Percent change in spark frequency, amplitude, mass, leak, and SR Ca2+ content relative to vehicle (DMSO), obtained from wild-type myocytes. SR Ca2+ content was measured as the Ca2+ transient amplitude elicited by application of 10 mM caffeine (n≥5 cells per group). Data are presented as mean±SEM. N≥30 cells per group for A, B, and F. N=4 replicates for each concentration tested in C and D. *p<0.05 vs DMSO, **p<0.01 vs DMSO, ***p<0.001 vs DMSO by 1-way ANOVA with Tukey's post-hoc test (B) or t-test (C, D, and F).
(§2) Skeletal and cardiac SR were incubated with 50 μM nat-1, ent-1, and tetracaine for three hours. Nat-1 increased RyR1 activity, but had no effect on RyR2 (FIG. 2C). Conversely, ent-1 inhibited RyR2, but had no effect on RyR1. The well-established RyR inhibitor, tetracaine, inhibited both isoforms. Ent-1 was selected to generate full dose response curves for both cardiac and skeletal SR. Ent-1 inhibited RyR2 in a concentration-dependent manner with an apparent IC50 of approximately 0.1 μM and maximal inhibition of approximately 20% (FIG. 2D), but had no effect on RyR1 up to 50 μM (Figure S2). […] To further characterize the Ca^2+ release inhibition by ent-1, the present inventors applied a lower concentration (3 μM) to wild type mouse myocytes and compared results to two other classical Ca^2+ release inhibitors, flecainide and tetracaine (representative line scans and sparks are shown in FIG. 2E).

A further series concerns the target T2, RyR1 (Sus scrofa, UniProt P16960).
T2 construct: SR isolated from porcine longissimus dorsi (RyR1); from tissue; host or cells: porcine longissimus dorsi sarcoplasmic reticulum
Kind of series: [3H]ryanodine binding to skeletal muscle SR. More on the design: species or system porcine. As to conditions: 50 μM, three hours. The protocol:
as §1, with “F). […]” for “F).”

Series [2] can be described thus: [Ca2+]free by Fluo-4 fluorescence under spark assay conditions. The series is classed as physicochemical. The conditions noted are these: 25 μM, 10 minutes in internal spark solution. The procedure:
Ventricular mouse myocytes were isolated, permeabilized with saponin to enable equivalent access of the compounds to the SR membrane, and incubated with DMSO or 25 μM nat- and ent-1, 7, 8. RyR2 activity was measured in the form of Ca^2+ sparks, which are elementary Ca^2+ release events generated by spontaneous openings of intracellular RyR2 Ca^2+ release channels. […] Cardiac SR Ca^2+ release is sensitive to the Ca^2+ concentration present at the cytosolic face of RyR2. To confirm that [Ca^2+]free was not altered by any of the compounds, Fluo-4 fluorescence was measured under spark assay conditions. The internal spark solution was incubated with DMSO or 25 μM nat-1, 7, 8, and their respective enantiomers for 10 minutes and [Ca^2+]free was calculated from a set of Ca^2+ standards.

In another series the test system is insect RyR. The conditions noted are these: read-out: IC50, binding insect RyR; cited from earlier work.
In series [3] the target is T3, RyR2 (Mus musculus, UniProt E9Q401).
T3 construct: spontaneous openings of intracellular RyR2; endogenous in cells; host or cells: ventricular cardiomyocytes isolated from Casq2-/- mice (A1, A6) or wild-type mice (A5)
Kind of series: Ca2+ sparks in saponin-permeabilized Casq2-/- ventricular myocytes. The series is classed as cell-based. The conditions noted are these: 25 μM, permeabilized Casq2-/- cardiomyocytes, vs DMSO. The procedure:
(FIG. 2A) Representative confocal line scans of Ca2+ sparks in the absence (DMSO) or presence of 25 μM nat-1 or ent-1 in permeabilized Casq2−/− cardiomyocytes. (FIG. 2B) Ca2+ spark frequency in Casq2−/− cells treated with 25 μM nat-1, 7, 8, and their respective enantiomers. (FIG. 2C) Comparison of [3H]ryanodine binding to SR isolated from porcine longissimus dorsi (RyR1) or cardiac ventricle (RyR2) in the presence of 50 μM nat-1, ent-1, or tetracaine (tet). (FIG. 2D) Dose response curves for ent-1 and tet inhibition of [3H]ryanodine binding to RyR2. (FIG. 2E) Representative Ca2+ sparks from permeabilized wild-type cardiomyocytes treated with 3 μM ent-1, 25 μM flecainide, or 50 μM tetracaine. […] SR Ca2+ content was measured as the Ca2+ transient amplitude elicited by application of 10 mM caffeine (n≥5 cells per group). […]
Ventricular mouse myocytes were isolated, permeabilized with saponin to enable equivalent access of the compounds to the SR membrane, and incubated with DMSO or 25 μM nat- and ent-1, 7, 8. RyR2 activity was measured in the form of Ca^2+ sparks, which are elementary Ca^2+ release events generated by spontaneous openings of intracellular RyR2 Ca^2+ release channels. […] To confirm that [Ca^2+]free was not altered by any of the compounds, Fluo-4 fluorescence was measured under spark assay conditions. […]

The target of series [4] is T3, RyR2. Kind of series: Ca2+ sparks in permeabilized wild-type myocytes. The series is classed as cell-based. As to conditions: 3 μM ent-1, 25 μM flecainide, 50 μM tetracaine. The protocol:
as §1, §2

The subject of another series is spontaneous Ca^2+ waves. The conditions noted are these: 10 μM; cited from earlier work.

T3 sequence (E9Q401 whole entry): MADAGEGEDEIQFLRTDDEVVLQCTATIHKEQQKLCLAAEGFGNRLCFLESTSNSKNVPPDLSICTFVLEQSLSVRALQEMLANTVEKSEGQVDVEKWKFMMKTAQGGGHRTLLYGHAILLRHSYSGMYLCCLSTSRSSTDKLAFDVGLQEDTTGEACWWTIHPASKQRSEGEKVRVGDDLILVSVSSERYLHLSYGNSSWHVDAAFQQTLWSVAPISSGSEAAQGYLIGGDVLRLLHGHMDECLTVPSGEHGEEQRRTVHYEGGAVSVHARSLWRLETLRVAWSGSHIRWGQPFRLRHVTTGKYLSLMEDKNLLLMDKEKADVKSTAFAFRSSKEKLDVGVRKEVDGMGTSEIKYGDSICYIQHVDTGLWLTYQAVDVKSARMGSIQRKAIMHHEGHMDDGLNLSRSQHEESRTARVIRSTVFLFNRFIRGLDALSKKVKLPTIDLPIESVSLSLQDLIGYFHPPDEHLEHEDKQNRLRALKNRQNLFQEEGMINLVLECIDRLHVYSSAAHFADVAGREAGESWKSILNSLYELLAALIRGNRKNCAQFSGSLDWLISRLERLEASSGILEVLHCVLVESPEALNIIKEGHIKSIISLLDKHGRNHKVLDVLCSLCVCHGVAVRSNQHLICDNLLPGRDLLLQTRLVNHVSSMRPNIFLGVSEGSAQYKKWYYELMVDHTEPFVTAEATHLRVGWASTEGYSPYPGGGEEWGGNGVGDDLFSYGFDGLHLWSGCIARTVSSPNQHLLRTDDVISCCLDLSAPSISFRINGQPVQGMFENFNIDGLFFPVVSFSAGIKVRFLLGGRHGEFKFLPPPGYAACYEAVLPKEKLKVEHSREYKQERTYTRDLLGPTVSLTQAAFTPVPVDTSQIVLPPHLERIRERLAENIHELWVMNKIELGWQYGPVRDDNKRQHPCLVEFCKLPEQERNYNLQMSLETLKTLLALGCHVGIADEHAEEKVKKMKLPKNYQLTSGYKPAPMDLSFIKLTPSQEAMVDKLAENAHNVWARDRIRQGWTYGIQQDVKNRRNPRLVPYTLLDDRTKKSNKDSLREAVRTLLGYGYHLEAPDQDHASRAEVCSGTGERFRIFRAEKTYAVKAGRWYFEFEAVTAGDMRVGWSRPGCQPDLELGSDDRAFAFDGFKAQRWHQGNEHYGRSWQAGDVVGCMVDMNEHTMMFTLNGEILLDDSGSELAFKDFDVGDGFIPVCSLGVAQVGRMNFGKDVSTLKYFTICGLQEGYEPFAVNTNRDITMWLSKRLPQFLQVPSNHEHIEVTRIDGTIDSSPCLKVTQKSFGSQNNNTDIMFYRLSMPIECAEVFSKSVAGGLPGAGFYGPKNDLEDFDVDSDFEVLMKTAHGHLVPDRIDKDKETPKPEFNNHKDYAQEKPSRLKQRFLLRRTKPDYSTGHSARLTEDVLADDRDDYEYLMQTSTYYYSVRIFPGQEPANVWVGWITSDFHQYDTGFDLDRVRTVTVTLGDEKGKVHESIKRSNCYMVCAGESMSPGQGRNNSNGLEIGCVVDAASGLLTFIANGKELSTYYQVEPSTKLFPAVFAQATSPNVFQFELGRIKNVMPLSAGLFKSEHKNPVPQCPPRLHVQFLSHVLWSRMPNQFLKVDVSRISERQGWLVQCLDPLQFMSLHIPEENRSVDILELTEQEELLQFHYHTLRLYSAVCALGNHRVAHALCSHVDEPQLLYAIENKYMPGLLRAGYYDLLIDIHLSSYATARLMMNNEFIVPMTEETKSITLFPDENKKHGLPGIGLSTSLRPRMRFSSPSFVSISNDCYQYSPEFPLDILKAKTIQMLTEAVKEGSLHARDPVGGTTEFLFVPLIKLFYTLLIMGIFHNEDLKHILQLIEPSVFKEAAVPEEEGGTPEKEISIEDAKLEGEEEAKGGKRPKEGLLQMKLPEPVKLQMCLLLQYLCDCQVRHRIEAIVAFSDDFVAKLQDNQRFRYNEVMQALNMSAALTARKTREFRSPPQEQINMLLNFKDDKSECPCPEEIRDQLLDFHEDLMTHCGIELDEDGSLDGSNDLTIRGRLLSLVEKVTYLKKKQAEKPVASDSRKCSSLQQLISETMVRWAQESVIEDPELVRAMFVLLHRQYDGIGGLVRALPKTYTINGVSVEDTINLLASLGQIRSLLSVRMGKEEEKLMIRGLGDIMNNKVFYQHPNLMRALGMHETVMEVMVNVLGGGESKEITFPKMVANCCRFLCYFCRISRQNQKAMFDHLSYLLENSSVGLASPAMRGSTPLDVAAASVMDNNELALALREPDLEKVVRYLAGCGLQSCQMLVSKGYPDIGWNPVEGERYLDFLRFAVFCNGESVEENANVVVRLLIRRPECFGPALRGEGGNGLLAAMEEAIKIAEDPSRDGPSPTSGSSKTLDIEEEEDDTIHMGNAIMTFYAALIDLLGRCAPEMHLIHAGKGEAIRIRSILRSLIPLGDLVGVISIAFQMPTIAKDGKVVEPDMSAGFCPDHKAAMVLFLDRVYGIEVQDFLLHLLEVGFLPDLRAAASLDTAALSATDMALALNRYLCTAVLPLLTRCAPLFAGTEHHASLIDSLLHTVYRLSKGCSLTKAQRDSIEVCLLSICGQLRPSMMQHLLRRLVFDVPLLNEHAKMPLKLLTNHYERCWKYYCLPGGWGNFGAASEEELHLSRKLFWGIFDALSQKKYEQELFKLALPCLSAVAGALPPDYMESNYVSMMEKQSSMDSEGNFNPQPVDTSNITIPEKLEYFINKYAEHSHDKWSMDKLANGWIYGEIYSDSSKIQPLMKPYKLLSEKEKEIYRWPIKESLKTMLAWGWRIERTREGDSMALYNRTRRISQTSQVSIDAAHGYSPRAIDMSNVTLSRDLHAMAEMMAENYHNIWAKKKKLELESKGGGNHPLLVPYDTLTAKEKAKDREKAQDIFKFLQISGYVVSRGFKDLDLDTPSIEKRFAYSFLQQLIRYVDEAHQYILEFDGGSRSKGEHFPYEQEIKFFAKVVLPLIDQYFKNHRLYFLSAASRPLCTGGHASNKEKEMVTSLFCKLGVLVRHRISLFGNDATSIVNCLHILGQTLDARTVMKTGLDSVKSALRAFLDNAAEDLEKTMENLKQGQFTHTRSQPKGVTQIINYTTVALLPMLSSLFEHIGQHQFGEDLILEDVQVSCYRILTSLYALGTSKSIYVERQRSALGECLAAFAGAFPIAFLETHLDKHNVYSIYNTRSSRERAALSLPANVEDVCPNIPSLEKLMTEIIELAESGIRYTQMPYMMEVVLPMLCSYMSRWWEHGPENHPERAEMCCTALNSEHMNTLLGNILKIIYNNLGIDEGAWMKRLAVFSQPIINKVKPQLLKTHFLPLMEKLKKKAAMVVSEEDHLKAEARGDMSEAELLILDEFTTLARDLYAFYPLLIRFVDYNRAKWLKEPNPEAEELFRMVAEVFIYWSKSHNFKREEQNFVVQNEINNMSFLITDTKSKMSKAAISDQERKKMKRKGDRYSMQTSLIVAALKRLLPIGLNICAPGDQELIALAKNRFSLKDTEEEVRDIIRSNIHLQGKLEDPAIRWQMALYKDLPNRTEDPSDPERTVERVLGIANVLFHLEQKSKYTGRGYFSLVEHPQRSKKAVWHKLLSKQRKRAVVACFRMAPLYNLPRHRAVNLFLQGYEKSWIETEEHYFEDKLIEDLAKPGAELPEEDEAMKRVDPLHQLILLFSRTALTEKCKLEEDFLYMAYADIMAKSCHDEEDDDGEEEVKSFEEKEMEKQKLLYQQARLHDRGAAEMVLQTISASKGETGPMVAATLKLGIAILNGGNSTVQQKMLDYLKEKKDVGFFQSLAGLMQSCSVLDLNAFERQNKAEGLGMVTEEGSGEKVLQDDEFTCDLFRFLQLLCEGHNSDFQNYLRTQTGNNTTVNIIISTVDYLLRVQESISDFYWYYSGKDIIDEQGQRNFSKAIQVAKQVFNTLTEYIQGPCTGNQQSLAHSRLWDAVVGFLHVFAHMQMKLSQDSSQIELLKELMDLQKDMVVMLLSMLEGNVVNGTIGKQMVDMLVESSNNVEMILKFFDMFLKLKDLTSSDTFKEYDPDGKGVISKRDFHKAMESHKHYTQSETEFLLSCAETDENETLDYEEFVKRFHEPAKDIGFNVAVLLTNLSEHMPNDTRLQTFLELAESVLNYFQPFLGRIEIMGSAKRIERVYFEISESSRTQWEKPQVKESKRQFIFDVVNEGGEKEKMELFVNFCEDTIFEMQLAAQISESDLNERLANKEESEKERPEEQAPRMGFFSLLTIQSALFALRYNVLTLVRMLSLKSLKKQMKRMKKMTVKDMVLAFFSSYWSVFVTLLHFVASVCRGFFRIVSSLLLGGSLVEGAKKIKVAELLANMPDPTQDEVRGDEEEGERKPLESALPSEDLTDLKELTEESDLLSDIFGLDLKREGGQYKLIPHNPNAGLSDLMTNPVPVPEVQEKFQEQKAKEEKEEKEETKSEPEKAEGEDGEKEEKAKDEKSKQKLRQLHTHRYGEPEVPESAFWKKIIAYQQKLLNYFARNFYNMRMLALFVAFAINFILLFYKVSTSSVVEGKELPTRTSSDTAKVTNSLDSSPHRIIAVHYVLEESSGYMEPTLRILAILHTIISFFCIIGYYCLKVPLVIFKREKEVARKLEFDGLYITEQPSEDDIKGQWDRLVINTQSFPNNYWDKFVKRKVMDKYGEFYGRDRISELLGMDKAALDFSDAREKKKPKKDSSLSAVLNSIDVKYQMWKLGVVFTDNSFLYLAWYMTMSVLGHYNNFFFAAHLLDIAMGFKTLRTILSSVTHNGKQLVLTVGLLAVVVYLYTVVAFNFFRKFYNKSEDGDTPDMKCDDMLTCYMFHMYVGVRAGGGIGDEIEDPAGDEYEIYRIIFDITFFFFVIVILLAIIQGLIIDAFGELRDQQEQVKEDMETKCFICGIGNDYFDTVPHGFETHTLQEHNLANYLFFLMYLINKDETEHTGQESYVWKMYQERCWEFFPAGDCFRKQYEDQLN

By IC50 is commonly meant the point on the concentration scale where inhibition reaches its midpoint. On to `CCCCC[C@@H]1OC(=O)[C@@H](C)N(C)C(=O)[C@H](CCCCC)OC(=O)[C@@H](C)N(C)C(=O)[C@H](CCCCC)OC(=O)[C@@H](C)N(C)C(=O)[C@H](CCCCC)OC(=O)[C@@H](C)N(C)C1=O` (single isomer, unassigned) [ent-1, ent-(+)-verticilide], for which the “ECG PR interval” value with Casq2^−/− mice (index of Ca2+ channel block) is “no significant effect”. Besides, the “ECG QRS duration” value in the series with Casq2^−/− mice (index of Na+ channel block) is given as “no significant effect”. At RyR2 [1], this molecule displayed an IC50 of roughly 0.1 µM. Besides, the “maximal inhibition of [3H]ryanodine binding to RyR2” value on RyR2 [1] (dose response, cardiac SR) was “approximately 20%”.
In the case of `CCCCCC1OC(=O)C(C)N(C)C(=O)C(CCCCC)OC(=O)C(C)N(C)C(=O)C(CCCCC)OC(=O)C(C)N(C)C(=O)C(CCCCC)OC(=O)C(C)N(C)C1=O` (single isomer, unassigned; (-)) [nat-1, (−)-Verticilide], the “[3H]ryanodine binding (RyR1 activity)” value on RyR1 is listed as “increased”. In addition, in series [2], the “binding to Ca2+ ([Ca2+]free)” value was “did not bind to Ca^2+”. The half-inhibitory concentration (IC50) with insect RyR is 4.2 µM. Moreover, at RyR2 [1], the “[3H]ryanodine binding (RyR2 activity)” value was “no effect”. Besides, at RyR2 [3], the “Ca2+ spark frequency” value was “no effect”.
As to `O=C(NCC1CCCCN1)c1cc(OCC(F)(F)F)ccc1OCC(F)(F)F` (stereo not drawn) [flecainide], at RyR2 [4], the “Ca2+ spark frequency” value is recorded as “paradoxical increase”, the “Ca2+ spark mass” value is “reduces the amount of Ca^2+ released during a spark” and the “Ca2+ spark mediated SR Ca2+ leak” value was “leak-neutral blocker”. Also, the “effectiveness in suppressing spontaneous Ca2+ waves” value in the series on spontaneous Ca^2+ waves was 30%.
As for `CCCCNc1ccc(C(=O)OCCN(C)C)cc1` [tetracaine], the “[3H]ryanodine binding (RyR1 activity)” value on RyR1 is on record as “inhibited”. For the same molecule, the “[3H]ryanodine binding (RyR2 activity)” value at RyR2 [1] is “inhibited”. On RyR2 [4], the “Ca2+ spark frequency” value is recorded as “depresses”, the “Ca2+ spark mass” value is given as “did not reduce” and the “Ca2+ spark mediated SR Ca2+ leak” value is given as “only modestly reduces”.
